Experimental data from article PMC4772116 (Scientific Reports, 2016).

Tests used:
[1] = target: Ac-AChBP (Aplysia californica, UniProt Q8WSF8); assay: biochemical; assay type: binding
[2] = target: human α3β2 nAChR (Homo sapiens, UniProt P17787+P32297); assay: cell-based; assay type: cell-based
[3] = target: Ls-AChBP (Lymnaea stagnalis, UniProt P58154); assay: biochemical; assay type: binding
Ls-AChBP, sequence (P58154 20-229 limits assumed): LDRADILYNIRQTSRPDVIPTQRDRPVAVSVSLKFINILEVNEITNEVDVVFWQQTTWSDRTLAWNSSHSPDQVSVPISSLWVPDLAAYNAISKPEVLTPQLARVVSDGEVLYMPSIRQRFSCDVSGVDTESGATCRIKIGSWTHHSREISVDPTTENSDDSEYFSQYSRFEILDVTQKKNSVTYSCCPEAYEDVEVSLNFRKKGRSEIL

Ac-AChBP, sequence (Q8WSF8 20-236 limits assumed): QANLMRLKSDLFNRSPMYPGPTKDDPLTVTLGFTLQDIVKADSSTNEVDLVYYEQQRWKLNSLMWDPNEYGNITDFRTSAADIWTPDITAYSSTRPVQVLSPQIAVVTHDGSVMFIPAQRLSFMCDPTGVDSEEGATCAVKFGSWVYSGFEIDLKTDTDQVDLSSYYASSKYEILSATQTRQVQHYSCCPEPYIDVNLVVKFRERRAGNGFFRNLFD
human α3β2 nAChR, sequence (P32297 32-505 limits assumed): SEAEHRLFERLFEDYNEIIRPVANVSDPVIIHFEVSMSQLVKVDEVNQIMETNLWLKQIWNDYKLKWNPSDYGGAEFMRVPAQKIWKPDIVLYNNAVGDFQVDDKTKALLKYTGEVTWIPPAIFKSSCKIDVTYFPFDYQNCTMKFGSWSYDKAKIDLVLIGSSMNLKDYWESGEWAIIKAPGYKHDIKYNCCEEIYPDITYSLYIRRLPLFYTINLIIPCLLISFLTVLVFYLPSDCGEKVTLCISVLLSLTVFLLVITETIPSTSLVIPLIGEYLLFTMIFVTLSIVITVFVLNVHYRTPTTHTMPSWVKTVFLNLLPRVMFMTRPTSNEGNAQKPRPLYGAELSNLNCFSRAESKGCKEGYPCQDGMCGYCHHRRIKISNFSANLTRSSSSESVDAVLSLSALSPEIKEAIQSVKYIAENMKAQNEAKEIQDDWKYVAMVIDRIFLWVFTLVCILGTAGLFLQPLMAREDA
human α3β2 nAChR, sequence (P17787 26-502 limits assumed): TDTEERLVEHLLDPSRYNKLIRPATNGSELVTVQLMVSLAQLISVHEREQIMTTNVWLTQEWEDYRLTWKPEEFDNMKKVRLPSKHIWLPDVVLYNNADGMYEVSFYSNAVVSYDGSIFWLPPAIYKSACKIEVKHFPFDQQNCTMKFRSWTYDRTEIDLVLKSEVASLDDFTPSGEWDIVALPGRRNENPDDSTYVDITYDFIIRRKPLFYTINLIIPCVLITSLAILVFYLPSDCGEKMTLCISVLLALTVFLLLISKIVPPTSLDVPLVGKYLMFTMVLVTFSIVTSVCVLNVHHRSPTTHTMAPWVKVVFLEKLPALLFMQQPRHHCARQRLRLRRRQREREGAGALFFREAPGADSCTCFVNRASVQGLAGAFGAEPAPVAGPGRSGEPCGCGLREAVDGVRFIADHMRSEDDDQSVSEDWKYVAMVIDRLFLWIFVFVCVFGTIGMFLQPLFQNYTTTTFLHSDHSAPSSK

`CC[C@H](C)[C@@H]1NC(=O)[C@H](Cc2cnc[nH]2)NC(=O)[C@H](CCC(N)=O)NC(=O)[C@H](CC(N)=O)NC(=O)[C@H](CC(N)=O)NC(=O)CNC(=O)[C@H](C)NC(=O)[C@@H]2CSSC[C@H](NC(=O)CN)C(=O)N[C@@H](CSSC[C@@H](C(N)=O)NC1=O)C(=O)N[C@@H](CO)C(=O)N[C@@H](Cc1cnc[nH]1)C(=O)N1CCC[C@H]1C(=O)N[C@@H](C)C(=O)N2` [GIC, α-conotoxin GIC] was tested, and the IC50 [1] was 0.029 ± 0.002 µM, the IC50 [2] was 0.00113 µM and the Ki [3] was 0.22 ± 0.01 µM.
